The source of these data is PubChem BioAssay (NCI).

What all share (assay): DTP human tumour cell line panel, 48 h
Assay [1] concerns DU-145 prostate.
The test system of assay [2] is EKVX NSCLC.
In assay [3] the test system is HS 578T breast.
For assay [4], the system named is M14 melanoma.
Assay [5] relates to MALME-3M melanoma.
Assay [6] concerns MDA-MB-435.
The test system of assay [7] is SK-MEL-28 melanoma.
Assay [8] relates to SR leukemia.
Assay [9] relates to T-47D breast.
Assay [10] has as its system U251 CNS.

Molecules are shown by their SMILES.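 Cells were grown in 96-well plates and exposed to each compound for 48 hours at five concentrations; endpoints were interpolated linearly between bracketing concentrations, or set to the highest concentration if not reached. GI50 = concentration required for 50% inhibition of growth. TGI is the concentration that stops growth completely.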

A word on the GI50: it is the concentration that inhibits growth by half. Usually TGI stands for the concentration at which net growth stops. With `O=c1ccn(C2CC(O)C(CO)O2)c(=O)[nH]1` (stereo not given), the GI50 in [1], in assay [2], in [3], in assay [4], in assay [5] and in [6] was > 5000 µM throughout. The GI50 in assay [7], in assay [8], in assay [9] and in assay [10] was > 5000 µM in each case. The TGI in assay [1], in assay [2], in assay [3], in assay [4], in assay [5] and in assay [6] was > 5000 µM in each case. Besides, the concentration for total growth inhibition (TGI) in [7], in [8], in [9] and in assay [10] was > 5000 µM each time.
For `COc1cccc(-n2nc(C)c3c(N/N=C(\C)c4ccncc4)ncnc32)c1`, the GI50 in assay [1] is > 25 µM; in assay [2], > 25 µM; in assay [3] it was > 25 µM; in [4] it was > 25 µM; in [5] it was 10.3 µM; in assay [6] it was > 25 µM. Further, the GI50 in [7] was > 25 µM; in assay [8], > 25 µM; in [9], 6.6 µM; in assay [10], > 22.2 µM. Moreover, the TGI in assay [1], in [2], in assay [3], in [4], in [5] and in assay [6] was > 25 µM throughout. Moreover, the TGI in assay [7], in assay [8], in assay [9] and in assay [10] was > 25 µM throughout.
For `CC1(N)CCN(c2cccnc2NC(=O)c2nc(-c3ncccc3C(F)(F)F)cnc2N)CC1`, the GI50 in assay [1] is 35.3 µM; in [2] it was 34.9 µM; in assay [3] it was 38.5 µM; in [4], 25.9 µM; in [5], 17.6 µM; in [6], 41.6 µM. In addition, the GI50 in assay [7] is 25 µM; in assay [8], 3.3 µM; in [9] it was 17.5 µM; in [10], 21.8 µM. Further, the TGI was > 100 µM in assay [1]; > 100 µM in [2]; > 100 µM in assay [3]; 80.3 µM in assay [4]; 36.4 µM in assay [5]; > 100 µM in assay [6]. For the same compound, the concentration for total growth inhibition (TGI) in assay [7] is 85.6 µM; in assay [8], 35.5 µM; in [9], 48.3 µM; in [10], > 100 µM.
With `COc1cc2c3c(n(CCCCN)c(=O)c2cc1OC)-c1cc2c(cc1C3=O)OCO2`, the GI50 in [1] is 0.147 µM; in assay [2], 0.744 µM; in [3] it was 4.6 µM; in assay [4], 1.36 µM; in assay [5], 4.11 µM; in assay [6] it was 2.29 µM. Further, the GI50 was 1.56 µM in assay [7], 0.115 µM in assay [8], 1.22 µM in assay [9] and 0.407 µM in assay [10]. Also, the total growth inhibition concentration (TGI) in assay [1] amounted to 1.03 µM; in [2] it was 3.57 µM; in assay [3] it was 11.8 µM; in [4], 6.22 µM; in assay [5], 11.2 µM; in assay [6] it was 7.32 µM. Moreover, the total growth inhibition concentration (TGI) amounted to 12.4 µM in assay [7], 0.417 µM in [8], 10.3 µM in [9] and 2.86 µM in assay [10].
As to `Cc1ccc(-c2nc(C#N)c(S(=O)(=O)n3nc(C)cc3N)o2)cc1`, the GI50 in assay [1] was 7.8 µM; in assay [2], 21.8 µM; in assay [3] it was 21.3 µM; in assay [4] it was 3.35 µM; in assay [5], 1.82 µM; in assay [6], 10.5 µM. For the same compound, the GI50 in assay [7] was 12.7 µM; in assay [8] it was 2.06 µM; in assay [9], 2.27 µM; in assay [10], 13.6 µM. Also, the TGI worked out at 20.2 µM in [1]; 55 µM in assay [2]; 58.1 µM in assay [3]; 14.4 µM in [4]; 3.54 µM in assay [5]; 22.7 µM in [6]. The TGI in assay [7] was 25.6 µM; in assay [8] it was 6.91 µM; in [9], 5.76 µM; in assay [10], 26.5 µM.
As to `O=C(N/C(=C/c1ccc(Cl)cc1Cl)c1nc2ccccc2s1)c1ccccc1`, the TGI in [1] was determined as 31.5 µM; in assay [2], 41 µM; in assay [3], 44.3 µM; in assay [4], 37.6 µM; in assay [5] it was 31.1 µM; in [6], 30.2 µM. In addition, the TGI was 34.2 µM in [7], > 100 µM in assay [8], 43.3 µM in [9] and 9.05 µM in assay [10].
For the compound `CC1CC2OC(=O)C(C)C2CC2(C)C(OC3OC(CO)C(O)C(O)C3O)OCCC12` (stereo not given), the TGI in assay [1], in [2], in assay [3], in [4], in [5] and in assay [6] was > 100 µM in each case. Further, the TGI in assay [7], in assay [8], in [9] and in assay [10] was > 100 µM each time.
Regarding `CCCCC[C@H]1C/C=C2/C(=O)C=C[C@@H]2C/C=C\CCCC(=O)O[C@@H](CCCCC)C/C=C2/C(=O)C=C[C@@H]2C/C=C\CCCC(=O)O1`, the concentration for 50% growth inhibition (GI50) in assay [1] was 0.355 µM; in assay [2] it was 0.373 µM; in assay [3], 1.28 µM; in assay [4], 0.273 µM; in [5], 0.338 µM; in [6] it was 0.0959 µM. The concentration for 50% growth inhibition (GI50) in assay [7] was 0.196 µM; in [8] it was 0.0825 µM; in [9], 0.236 µM; in assay [10] it was 0.151 µM. Also, the TGI in assay [1] turned out to be 1.34 µM; in assay [2], 1.03 µM; in assay [3], 10.1 µM; in assay [4], 1.01 µM; in assay [5], 0.885 µM; in [6] it was 0.412 µM. In addition, the total growth inhibition concentration (TGI) was determined as 0.675 µM in assay [7], 0.52 µM in assay [8], 0.819 µM in assay [9] and 0.473 µM in [10].
